Test systems include CAKI-1 renal; HCT-116 colon; SR leukemia; MDA-MB-435; A498 renal; SN12C renal; OVCAR-3 ovarian; SF-539 CNS; UACC-62 melanoma; BT-549 breast.
What all share (experiment): NCI anticancer screen, dose series, 48 h

Several values for one entry are separate records, joined by “and”; a condition that tells them apart may be missing. Equal values may be shown once.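 Grown in 96-well plates, cells were treated for 48 hours with each compound at five concentrations. Insufficient inhibition: endpoint recorded as highest concentration tested. GI50 marks 50% less growth. The concentration for full growth arrest is given as TGI.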

Regarding `O=CCCCCCOCc1ccccc1`, the TGI is above 66.8 µM in the test with CAKI-1 renal; above 67.9 µM with HCT-116 colon; above 100 µM in the test with SR leukemia; above 100 µM in the test on MDA-MB-435; above 100 µM with A498 renal; 32.6 µM in the test on SN12C renal. In addition, the TGI in the test on OVCAR-3 ovarian is above 100 µM; in the test on SF-539 CNS, above 100 µM; in the test on UACC-62 melanoma it was above 89.4 µM; in the test on BT-549 breast it was above 100 µM.
As to `CC(=O)NC1C(OCc2ccccc2)OC(CO)C(O)C1OC(C)C(=O)N[C@@H](C)C(=O)N[C@H](CCC(=O)NCCNCCNc1c2ccccc2nc2cccc([N+](=O)[O-])c12)C(N)=O` (stereo partly drawn), the TGI is 0.565 µM in the test with CAKI-1 renal; 0.512 µM in the test with HCT-116 colon; above 71.4 µM with SR leukemia; 0.235 µM in the test with MDA-MB-435; 0.32 µM in the test with A498 renal; 0.99 µM in the test on SN12C renal. Besides, the TGI was 4.44 µM with OVCAR-3 ovarian, 0.991 µM in the test on SF-539 CNS, 0.199 µM in the test with UACC-62 melanoma and 0.221 µM in the test on BT-549 breast.
For the compound `Cn1/c(=N\N=C2\C=C3CCCCC3(C)CC2)sc2ccccc21` (stereo not drawn), the TGI in the test on CAKI-1 renal, in the test with HCT-116 colon, in the test with SR leukemia, in the test with MDA-MB-435, with A498 renal and with SN12C renal was above 100 µM throughout. The TGI in the test on OVCAR-3 ovarian, in the test on SF-539 CNS, with UACC-62 melanoma and in the test on BT-549 breast was above 100 µM each time.
`Clc1ccc2c(c1)N(CCCN1CCCC13CCCCC3)c1ccccc1S2`: the TGI in the test on CAKI-1 renal was above 76.8 µM; with HCT-116 colon, 30.7 µM; in the test on SR leukemia, 17.5 µM; in the test on MDA-MB-435 it was 27.4 µM; in the test on A498 renal, 33.2 µM; in the test with SN12C renal, 26.8 µM. Also, the TGI stood at 34.4 µM with OVCAR-3 ovarian, 33.4 µM in the test on SF-539 CNS, 31.1 µM in the test on UACC-62 melanoma and 32.5 µM in the test on BT-549 breast.
Take `O=C(O)CSC(CC(=O)c1ccc(Cl)cc1)c1ccc(Cl)cc1` (stereo not drawn): the TGI in the test on CAKI-1 renal was above 100 µM; in the test on HCT-116 colon, 59.7 µM; in the test with SR leukemia, 7.37 µM; with MDA-MB-435, above 100 µM; in the test on A498 renal, above 100 µM; in the test on SN12C renal, above 100 µM. Besides, the TGI is 50 µM with OVCAR-3 ovarian, above 100 µM in the test with SF-539 CNS, above 100 µM with UACC-62 melanoma and 80.7 µM with BT-549 breast.
For the compound `COC(=O)C1OC(O[C@H]2CC[C@]3(C)[C@H]4CC=C5[C@@H]6CC(C)(C)CC[C@]6(C(=O)OC6OCC(O)C(O)C6OC6OC(C)C(OC7OCC(O)C(O)C7O)C(O)C6O)[C@H](O)C[C@@]5(C)[C@]4(C)CC[C@H]3C2(C)C)C(O)C(O)C1O` (stereo partly drawn), the TGI is 11.2 µM and 14.9 µM in the test with CAKI-1 renal; > 100 µM and 17.4 µM in the test on HCT-116 colon; > 100 µM and 13.4 µM in the test on SR leukemia; 3.78 µM and 5.21 µM in the test with MDA-MB-435; 3.55 µM and 3.85 µM in the test with A498 renal; 3.62 µM and 3.7 µM in the test on SN12C renal. Also, the TGI was > 78.1 µM and 25 µM in the test with OVCAR-3 ovarian; > 100 µM and 37.5 µM in the test with SF-539 CNS; 8.55 µM and 21.7 µM in the test with UACC-62 melanoma; 8.86 µM and 21.8 µM with BT-549 breast. Besides, the GI50 in the test on SF-539 CNS was > 100 µM and 19 µM; in the test on UACC-62 melanoma, 2.89 µM and 7.04 µM; in the test with BT-549 breast, 3.06 µM and 7.31 µM.
With `Cc1c(C)c2c(c(N)c1C#N)C(=O)N(N)C2=O`, the TGI with CAKI-1 renal, in the test with HCT-116 colon, in the test on SR leukemia, in the test with MDA-MB-435, in the test with A498 renal and in the test on SN12C renal was above 100 µM each time. Besides, the TGI in the test with OVCAR-3 ovarian, in the test with SF-539 CNS, in the test on UACC-62 melanoma and in the test on BT-549 breast was above 100 µM each time.
As to `C=C1CCC[C@@H](C)C(O)[C@@H]2OC(=O)C(=C)[C@@H]2C[C@@H](OC(C)=O)[C@@]2(C)CC[C@@H]1O2` (stereo partly drawn), the TGI in the test with CAKI-1 renal amounted to 13.6 µM; in the test with HCT-116 colon it was 13.8 µM; in the test with SR leukemia, 9.91 µM; with MDA-MB-435, 15.1 µM; in the test on A498 renal it was 19.2 µM; with SN12C renal, 16 µM. The TGI in the test on OVCAR-3 ovarian was determined as 11.5 µM; in the test on SF-539 CNS, 15.3 µM; with UACC-62 melanoma it was 11.7 µM; in the test with BT-549 breast, 14.4 µM.
Regarding `N#CCCC(C=O)(CCC#N)CCC#N`, the TGI in the test with CAKI-1 renal, in the test on HCT-116 colon, with SR leukemia, in the test with MDA-MB-435, with A498 renal and with SN12C renal was above 100 µM in each case. Moreover, the TGI in the test on OVCAR-3 ovarian, in the test on SF-539 CNS, in the test with UACC-62 melanoma and in the test on BT-549 breast was above 100 µM throughout.
Regarding `CC(=O)CC1(CBr)Nc2ccc([N+](=O)[O-])cc2NC1=O` (stereo not drawn), the TGI in the test with CAKI-1 renal, with HCT-116 colon, in the test with SR leukemia, with MDA-MB-435, in the test on A498 renal and in the test with SN12C renal was above 100 µM throughout. Moreover, the TGI with OVCAR-3 ovarian, in the test with SF-539 CNS, in the test with UACC-62 melanoma and in the test on BT-549 breast was above 100 µM throughout.
Turning to `O=P1(N(CCCl)CCCl)Oc2ccc(Cl)cc2C(C(Cl)(Cl)Cl)c2cc(Cl)ccc2O1` (stereo not drawn), the TGI in the test with CAKI-1 renal was above 100 µM; in the test on HCT-116 colon it was 15.9 µM; in the test on SR leukemia, 30.6 µM; in the test on MDA-MB-435 it was 71.8 µM; in the test on A498 renal, above 100 µM; in the test with SN12C renal, 57.6 µM. For the same compound, the TGI with OVCAR-3 ovarian is 24.3 µM; with SF-539 CNS, 29.9 µM; in the test on UACC-62 melanoma it was 26.7 µM; with BT-549 breast, above 100 µM.
As to `Clc1ccc2c(NCCCCCCNc3ccnc4cc(Cl)ccc34)ccnc2c1`, the TGI worked out at 24.1 µM with CAKI-1 renal; 3.85 µM with HCT-116 colon; 19.3 µM with SR leukemia; 12.5 µM with MDA-MB-435; 42.3 µM in the test on A498 renal; 16.6 µM with SN12C renal. The TGI was 3.77 µM with OVCAR-3 ovarian, 3.6 µM in the test on SF-539 CNS, 8.66 µM in the test with UACC-62 melanoma and 27.5 µM in the test with BT-549 breast.

For the origin of these results see PubChem BioAssay (NCI).
